According to ChEMBL document CHEMBL4334471, “Discovery of 1,8-disubstituted-[1,2,3]triazolo[4,5-c]quinoline derivatives as a new class of Hippo signaling pathway inhibitors” (Bioorg Med Chem Lett, 2019):

Tests used:
[1] = molecular target: Protein kinase C beta type (Homo sapiens) (UniProt P05771); assay: Inhibition of recombinant human PKCbeta2 (2 to end residues) assessed as residual activity at 10 uM using histone H1 as substrate incubated for 40 mins in presence of [gamma33P]ATP by scintillation counting based radiometry assay relative to control
[2] = molecular target: MAP/microtubule affinity-regulating kinase 4 (Homo sapiens) (UniProt Q96L34); assay: Inhibition of recombinant full length human MARK4 assessed as residual activity at 10 uM using KKKVSRSGLYRSPSMPENLNRPR as substrate incubated for 40 mins in presence of [gamma-33ATP by scintillation counting based radiometry assay relative to control
[3] = molecular target: Cyclin-Y/Cyclin-dependent kinase 16 (Homo sapiens) (UniProt Q00536+Q8ND76); assay: Inhibition of recombinant full length human CDK16/cyclinY assessed as residual activity at 10 uM using PKSPKARKKL as substrate incubated for 120 mins in presence of [gamma-33ATP] by scintillation counting based radiometry assay relative to control; assay type: protein-complex assay
[4] = tested on: Epidermal growth factor receptor (Homo sapiens), P00533 [T790M]; assay: Inhibition of recombinant human EGFR T790M mutant (696 to end residues) assessed as residual activity at 10 uM using poly(Glu, Tyr) 4:1 as substrate at 40 mins in presence of [gamma-33ATP] by scintillation counting based radiometry assay relative to control
[5] = molecular target: Serine/threonine-protein kinase PAK 6 (Homo sapiens) (UniProt Q9NQU5); assay: Inhibition of recombinant human PAK6 (382 to end residues) assessed as residual activity at 10 uM using RRRLSFAEPG as substrate measured after 40 mins in presence of [gamma33P]ATP by scintillation counting based radiometry assay relative to control
[6] = molecular target: Myosin light chain kinase 2, skeletal/cardiac muscle (Homo sapiens) (UniProt Q9H1R3); assay: Inhibition of recombinant full length human MYLK2 assessed as residual activity at 10 uM using KKLNRTLSFAEPG as substrate measured after 40 mins in presence of [gamma33P]ATP by scintillation counting based radiometry assay relative to control
[7] = molecular target: Serine/threonine-protein kinase WNK3 (Homo sapiens) (UniProt Q9BYP7); assay: Inhibition of recombinant human WNK3 (1 to 434 residues) assessed as residual activity at 10 uM using myelin basic protein as substrate incubated for 40 mins in presence of [gamma33P]ATP by scintillation counting based radiometry assay relative to control
[8] = molecular target: Mitogen-activated protein kinase kinase kinase 9 (Homo sapiens) (UniProt P80192); assay: Inhibition of recombinant human MLK1 (134 to 414 residues) assessed as residual activity at 10 uM using casein as substrate incubated for 40 mins in presence of [gamma-33ATP by scintillation counting based radiometry assay relative to control
[9] = molecular target: SRSF protein kinase 3 (Homo sapiens) (UniProt Q9UPE1); assay: Inhibition of recombinant full-length human MSSK1 assessed as residual activity at 10 uM using ERMRPRKRQGSVRRRV as substrate measured after 40 mins in presence of [gamma33P]ATP by scintillation counting based radiometry assay relative to control
[10] = molecular target: Vascular endothelial growth factor receptor 1 (Homo sapiens) (UniProt P17948); assay: Inhibition of recombinant human FLT1 (783 to end residues) assessed as residual activity at 10 uM using KKKSPGEYVNIEF as substrate at 40 mins in presence of [gamma-33ATP] by scintillation counting based radiometry assay relative to control
[11] = molecular target: Tyrosine-protein kinase ABL1 (Homo sapiens) (UniProt P00519); assay: Inhibition of human ABL1 (27 to end residues) at 10 uM using EAIYAAPFAKKK as substrate incubated for 40 mins in presence of [gamma-33ATP] by scintillation counting based radiometry assay relative to control; parameters: scale not given: the % may be the effect or the level left
[12] = molecular target: Tau-tubulin kinase 2 (Homo sapiens) (UniProt Q6IQ55); assay: Inhibition of recombinant human TTBK2 (1 to 331 residues) assessed as residual activity at 10 uM using casein as substrate incubated for 40 mins in presence of [gamma33P]ATP by scintillation counting based radiometry assay relative to control
[13] = molecular target: Serine/threonine-protein kinase tousled-like 2 (Homo sapiens) (UniProt Q86UE8); assay: Inhibition of recombinant human TLK2 (387 to end residues) assessed as residual activity at 10 uM using casein as substrate incubated for 40 mins in presence of [gamma33P]ATP by scintillation counting based radiometry assay relative to control
[14] = molecular target: Muscle, skeletal receptor tyrosine-protein kinase (Homo sapiens) (UniProt O15146); assay: Inhibition of recombinant human MUSK (530 to end residues) assessed as residual activity at 10 uM using myelin basic protein as substrate measured after 40 mins in presence of [gamma33P]ATP by scintillation counting based radiometry assay relative to control
[15] = molecular target: G protein-coupled receptor kinase 5 (Homo sapiens) (UniProt P34947); assay: Inhibition of recombinant full length human GRK5 assessed as residual activity at 10 uM using casein as substrate at 40 mins in presence of [gamma-33ATP] by scintillation counting based radiometry assay relative to control
[16] = molecular target: Maternal embryonic leucine zipper kinase (Homo sapiens) (UniProt Q14680); assay: Inhibition of recombinant human MELK (1 to 340 residues) assessed as residual activity at 10 uM using KKLNRTLSFAEPG as substrate incubated for 40 mins in presence of [gamma-33ATP by scintillation counting based radiometry assay relative to control
[17] = tested on: Calcium/calmodulin-dependent protein kinase kinase 2 (Homo sapiens), Q96RR4 [T85S]; assay: Inhibition of recombinant full length human CaMKK2 T85S mutant assessed as residual activity at 10 uM using […] incubated for 40 mins in presence of [gamma-33ATP] by scintillation counting based radiometry assay relative to control
[18] = molecular target: Ribosomal protein S6 kinase alpha-6 (Homo sapiens) (UniProt Q9UK32); assay: Inhibition of recombinant full length human Rsk4 assessed as residual activity at 10 uM using LRRASLG as substrate incubated for 40 mins in presence of [gamma33P]ATP by scintillation counting based radiometry assay relative to control
[19] = molecular target: Leucine-rich repeat serine/threonine-protein kinase 2 (Homo sapiens) (UniProt Q5S007); assay: Inhibition of recombinant human LRRK2 (970 to end residues) assessed as residual activity at 10 uM using RLGRDKYKTLRQI as substrate after 40 mins in presence of [gamma-33ATP] by scintillation counting based radiometry assay relative to control
[20] = molecular target: FKBP12A/mTOR (Homo sapiens) (UniProt P62942+P42345); assay: Inhibition of recombinant full length human mTOR/FKBP12 assessed as residual activity at 10 uM measured after 40 mins in presence of [gamma33P]ATP by scintillation counting based radiometry assay relative to control; assay type: protein-complex assay
[21] = tested on: RAF proto-oncogene serine/threonine-protein kinase (Homo sapiens), P04049 [Y340D,Y341D]; assay: Inhibition of recombinant human C-Raf Y340D/Y341D mutant (306 to end residues) assessed as residual activity at 10 uM poly(Glu, Tyr) 4:1 as substrate incubated 40 mins in presence of [gamma-33ATP] by scintillation counting based radiometry assay relative to control

Myosin light chain kinase 2, skeletal/cardiac muscle (Homo sapiens), sequence (Q9H1R3 whole entry, the tested form may be a part): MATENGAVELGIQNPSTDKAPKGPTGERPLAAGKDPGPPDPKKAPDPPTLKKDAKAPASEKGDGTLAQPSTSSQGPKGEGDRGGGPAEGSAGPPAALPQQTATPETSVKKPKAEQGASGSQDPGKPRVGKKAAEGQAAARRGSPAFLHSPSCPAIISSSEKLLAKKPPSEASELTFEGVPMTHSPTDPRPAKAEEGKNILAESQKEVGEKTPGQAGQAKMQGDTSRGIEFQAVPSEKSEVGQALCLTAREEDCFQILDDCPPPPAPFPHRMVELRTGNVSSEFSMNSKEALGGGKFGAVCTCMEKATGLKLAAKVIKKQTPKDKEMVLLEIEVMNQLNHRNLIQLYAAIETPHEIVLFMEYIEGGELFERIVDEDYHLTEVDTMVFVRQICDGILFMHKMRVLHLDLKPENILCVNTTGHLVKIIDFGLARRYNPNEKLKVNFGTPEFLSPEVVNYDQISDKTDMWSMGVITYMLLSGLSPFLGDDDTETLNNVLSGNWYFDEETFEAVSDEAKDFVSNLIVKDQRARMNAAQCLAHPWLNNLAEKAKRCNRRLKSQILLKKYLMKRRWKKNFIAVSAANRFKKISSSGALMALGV
Tau-tubulin kinase 2 (Homo sapiens), sequence (Q6IQ55 whole entry, the tested form may be a part): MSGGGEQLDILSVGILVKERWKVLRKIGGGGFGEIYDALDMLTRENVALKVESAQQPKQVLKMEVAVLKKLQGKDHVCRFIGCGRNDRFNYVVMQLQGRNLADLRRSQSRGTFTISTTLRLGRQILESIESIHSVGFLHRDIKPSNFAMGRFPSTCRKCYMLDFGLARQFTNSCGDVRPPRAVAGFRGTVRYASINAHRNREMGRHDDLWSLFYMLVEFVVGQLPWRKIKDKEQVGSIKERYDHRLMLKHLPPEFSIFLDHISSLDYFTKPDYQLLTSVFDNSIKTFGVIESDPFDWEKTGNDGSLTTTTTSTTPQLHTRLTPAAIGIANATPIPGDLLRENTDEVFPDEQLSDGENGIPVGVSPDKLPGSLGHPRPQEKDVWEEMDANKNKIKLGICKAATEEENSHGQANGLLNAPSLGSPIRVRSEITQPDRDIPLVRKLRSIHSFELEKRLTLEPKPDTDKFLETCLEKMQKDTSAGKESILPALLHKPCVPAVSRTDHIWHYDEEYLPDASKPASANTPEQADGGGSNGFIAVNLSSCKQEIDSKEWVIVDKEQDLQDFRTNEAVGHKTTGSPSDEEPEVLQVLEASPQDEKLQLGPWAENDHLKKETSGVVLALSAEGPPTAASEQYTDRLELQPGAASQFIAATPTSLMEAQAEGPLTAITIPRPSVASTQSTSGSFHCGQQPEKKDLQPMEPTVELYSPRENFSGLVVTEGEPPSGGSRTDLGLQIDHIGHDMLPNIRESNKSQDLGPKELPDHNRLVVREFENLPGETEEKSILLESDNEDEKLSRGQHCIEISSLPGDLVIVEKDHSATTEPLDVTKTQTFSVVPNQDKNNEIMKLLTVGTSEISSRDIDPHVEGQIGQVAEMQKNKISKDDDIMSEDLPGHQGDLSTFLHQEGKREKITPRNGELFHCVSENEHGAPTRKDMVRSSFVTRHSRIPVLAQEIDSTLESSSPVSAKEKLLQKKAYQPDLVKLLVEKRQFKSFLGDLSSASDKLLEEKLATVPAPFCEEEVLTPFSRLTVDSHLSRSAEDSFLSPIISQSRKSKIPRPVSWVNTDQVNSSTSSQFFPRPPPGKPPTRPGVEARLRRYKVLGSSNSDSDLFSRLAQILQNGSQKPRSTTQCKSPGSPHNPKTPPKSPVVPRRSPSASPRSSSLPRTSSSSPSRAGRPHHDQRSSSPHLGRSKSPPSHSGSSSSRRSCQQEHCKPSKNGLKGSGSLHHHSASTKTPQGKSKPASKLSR
Vascular endothelial growth factor receptor 1 (Homo sapiens), sequence (P17948 whole entry): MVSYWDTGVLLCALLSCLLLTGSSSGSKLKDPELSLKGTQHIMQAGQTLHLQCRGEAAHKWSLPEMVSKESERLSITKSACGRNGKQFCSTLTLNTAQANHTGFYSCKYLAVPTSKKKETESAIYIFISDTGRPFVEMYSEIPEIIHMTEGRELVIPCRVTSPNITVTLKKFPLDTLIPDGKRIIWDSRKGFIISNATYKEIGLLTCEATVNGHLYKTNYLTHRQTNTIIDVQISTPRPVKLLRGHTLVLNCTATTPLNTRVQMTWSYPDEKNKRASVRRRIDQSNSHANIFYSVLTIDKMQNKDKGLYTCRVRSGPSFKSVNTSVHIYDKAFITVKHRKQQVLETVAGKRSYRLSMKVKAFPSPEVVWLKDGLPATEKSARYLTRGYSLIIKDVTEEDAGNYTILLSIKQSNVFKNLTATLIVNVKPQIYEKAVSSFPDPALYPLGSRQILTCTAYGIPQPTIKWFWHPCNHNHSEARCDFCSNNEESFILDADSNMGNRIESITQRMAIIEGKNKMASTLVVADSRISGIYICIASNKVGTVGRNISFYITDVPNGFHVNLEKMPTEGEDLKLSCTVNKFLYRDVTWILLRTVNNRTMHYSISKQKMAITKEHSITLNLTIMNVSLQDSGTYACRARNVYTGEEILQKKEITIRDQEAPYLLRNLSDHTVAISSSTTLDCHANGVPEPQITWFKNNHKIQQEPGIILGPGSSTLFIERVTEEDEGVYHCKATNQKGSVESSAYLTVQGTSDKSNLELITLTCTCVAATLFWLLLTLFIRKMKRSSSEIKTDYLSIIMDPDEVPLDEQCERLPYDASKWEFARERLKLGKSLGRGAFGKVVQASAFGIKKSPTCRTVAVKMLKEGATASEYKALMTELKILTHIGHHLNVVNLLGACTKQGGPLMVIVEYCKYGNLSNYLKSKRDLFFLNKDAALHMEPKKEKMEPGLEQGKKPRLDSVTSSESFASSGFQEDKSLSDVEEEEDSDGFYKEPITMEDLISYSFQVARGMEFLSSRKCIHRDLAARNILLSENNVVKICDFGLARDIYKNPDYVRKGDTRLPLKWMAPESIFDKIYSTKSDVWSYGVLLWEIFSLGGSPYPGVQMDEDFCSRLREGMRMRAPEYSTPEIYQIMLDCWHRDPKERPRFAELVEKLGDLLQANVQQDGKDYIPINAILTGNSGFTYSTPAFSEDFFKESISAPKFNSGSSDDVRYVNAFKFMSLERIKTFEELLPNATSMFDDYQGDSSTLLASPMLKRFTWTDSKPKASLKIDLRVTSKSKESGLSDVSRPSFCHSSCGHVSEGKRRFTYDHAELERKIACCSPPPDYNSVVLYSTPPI
Mitogen-activated protein kinase kinase kinase 9 (Homo sapiens), sequence (P80192 whole entry, looked up, the tested form may be a part): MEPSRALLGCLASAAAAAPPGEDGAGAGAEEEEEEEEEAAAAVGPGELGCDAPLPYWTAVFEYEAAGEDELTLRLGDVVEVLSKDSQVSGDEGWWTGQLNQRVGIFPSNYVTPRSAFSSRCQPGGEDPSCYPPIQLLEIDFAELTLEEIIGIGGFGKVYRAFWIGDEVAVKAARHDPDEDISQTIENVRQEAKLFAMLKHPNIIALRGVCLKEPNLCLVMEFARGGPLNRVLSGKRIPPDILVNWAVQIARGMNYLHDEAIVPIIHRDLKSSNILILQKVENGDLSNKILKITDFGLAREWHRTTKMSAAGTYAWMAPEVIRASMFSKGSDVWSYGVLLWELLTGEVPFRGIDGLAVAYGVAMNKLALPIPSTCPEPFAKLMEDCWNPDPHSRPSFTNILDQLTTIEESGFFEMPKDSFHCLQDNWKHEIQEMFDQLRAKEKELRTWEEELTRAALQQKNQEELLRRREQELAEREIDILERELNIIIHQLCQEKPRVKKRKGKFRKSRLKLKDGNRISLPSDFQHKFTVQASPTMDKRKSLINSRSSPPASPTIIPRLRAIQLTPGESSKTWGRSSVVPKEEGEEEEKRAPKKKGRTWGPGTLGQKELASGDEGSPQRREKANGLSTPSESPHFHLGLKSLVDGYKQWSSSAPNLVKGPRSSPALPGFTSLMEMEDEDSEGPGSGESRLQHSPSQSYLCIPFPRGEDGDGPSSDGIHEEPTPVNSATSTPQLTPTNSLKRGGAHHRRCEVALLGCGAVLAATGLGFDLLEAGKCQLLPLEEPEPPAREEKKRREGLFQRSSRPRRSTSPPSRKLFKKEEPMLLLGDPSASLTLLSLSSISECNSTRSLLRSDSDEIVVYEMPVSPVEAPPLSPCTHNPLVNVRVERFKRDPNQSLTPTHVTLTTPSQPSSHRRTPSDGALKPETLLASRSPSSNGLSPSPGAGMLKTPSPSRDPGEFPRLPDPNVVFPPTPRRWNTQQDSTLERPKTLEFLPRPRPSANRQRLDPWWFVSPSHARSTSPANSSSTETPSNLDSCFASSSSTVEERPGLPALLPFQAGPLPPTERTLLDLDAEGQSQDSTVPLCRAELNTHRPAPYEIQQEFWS
Serine/threonine-protein kinase PAK 6 (Homo sapiens), sequence (Q9NQU5 whole entry, looked up): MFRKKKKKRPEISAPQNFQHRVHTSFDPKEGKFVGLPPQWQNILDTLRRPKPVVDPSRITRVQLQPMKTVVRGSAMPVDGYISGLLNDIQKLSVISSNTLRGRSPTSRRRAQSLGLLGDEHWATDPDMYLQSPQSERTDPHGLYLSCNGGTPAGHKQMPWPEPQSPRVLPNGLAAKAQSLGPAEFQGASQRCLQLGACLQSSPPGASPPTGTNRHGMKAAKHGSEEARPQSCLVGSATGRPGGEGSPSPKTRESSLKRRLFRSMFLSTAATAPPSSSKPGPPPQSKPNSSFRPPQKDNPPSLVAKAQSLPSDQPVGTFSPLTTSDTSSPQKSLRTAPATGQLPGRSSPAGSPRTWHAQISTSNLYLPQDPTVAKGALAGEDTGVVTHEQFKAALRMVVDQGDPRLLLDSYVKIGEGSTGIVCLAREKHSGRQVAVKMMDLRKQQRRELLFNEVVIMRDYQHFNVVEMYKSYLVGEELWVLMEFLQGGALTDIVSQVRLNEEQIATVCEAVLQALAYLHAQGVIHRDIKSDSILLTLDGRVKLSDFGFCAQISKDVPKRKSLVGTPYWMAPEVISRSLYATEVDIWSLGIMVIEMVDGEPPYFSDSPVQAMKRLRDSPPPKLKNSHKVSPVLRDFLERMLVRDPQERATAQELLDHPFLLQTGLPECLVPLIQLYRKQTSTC
FKBP12A/mTOR (Homo sapiens), sequence (P62942 2-108 limits assumed, other chains not shown): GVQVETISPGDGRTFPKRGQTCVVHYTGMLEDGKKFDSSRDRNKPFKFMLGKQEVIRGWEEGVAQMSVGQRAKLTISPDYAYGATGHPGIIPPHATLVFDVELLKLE

`C[C@@H](c1ccccc1)n1nnc2cnc3ccc(-c4cnc5[nH]ccc5c4)cc3c21` gave an Activity [1] of 93%, an Activity [2] of 89% and an Activity [3] of 106%. For the same compound, the Activity [4] was 59%, the Activity [5] was 74% and the Activity [6] was 70%. It also gave an Activity [7] of 99%, an Activity [8] of 41% and an Activity [9] of 69%. For the same compound, the Activity [10] was 49%, the Activity [11] was -4% and the Activity [12] was 87%. The Activity [13] was 106%, the Activity [14] was 74% and the Activity [15] was 91%. It also gave an Activity [16] of 25%, an Activity [17] of 79% and an Activity [18] of 62%. It also gave an Activity [19] of 11%, an Activity [20] of -1% and an Activity [21] of 77%.
